Earlier results, collected in US7847120B2, “Compositions of allosteric hemoglobin modifiers and methods of making the same” (Virginia Commonwealth University Intellectual Property …, priority 2004, dated 2010).

Columns and labels:
[1] = test system: mouse fibrosarcoma tumor; details: combination of efaproxiral and radiation relative to radiation alone
[2] = test system: tissue oxygenation; details: in vivo
[3] = test system: EMT6 mouse mammary tumors; details: efaproxiral plus oxygen breathing, Rockwell and Kelley 1998

radiation effects in normal tissues ([3]; normal tissues): absence of enhanced radiation effects
SMILES: Cc1cc(C)cc(NC(=O)Cc2ccc(OC(C)(C)C(=O)O)cc2)c1 [efaproxiral, 2-[4-((((3,5-dimethylphenyl)amino)carbonyl)methyl)phenoxy]-2-methyl propionic acid]
tumor growth [1]: reduced
tissue oxygenation [2]: enhance tissue oxygenation in vivo
effect of radiation in tumors ([3]; EMT6 mouse mammary tumors): Enhancement of the effect of radiation was observed
